Reference: article PMC8587043, “An Investigation into the Interaction between Double Hydroxide-Based Antioxidant Benzophenone Derivatives and Cyclooxygenase 2” (Molecules, 2021)

Tests used:
[1] = biological target: T1, COX2 (Homo sapiens, UniProt P35354); test: Biolayer interferometry (BLI) binding to His-tagged COX2 on Ni-NTA sensors; conditions: for Kd: BLI, one-to-one binding model, 4–6 point concentration series, read-out: KD (equilibrium dissociation constant); for COX2 binding in BLI: initial assay at 100 μM, binders re-assayed in concentration series
T1 construct: purchased Sino Biological Co. (Beijing, China)
T1 sequence (P35354 18-604): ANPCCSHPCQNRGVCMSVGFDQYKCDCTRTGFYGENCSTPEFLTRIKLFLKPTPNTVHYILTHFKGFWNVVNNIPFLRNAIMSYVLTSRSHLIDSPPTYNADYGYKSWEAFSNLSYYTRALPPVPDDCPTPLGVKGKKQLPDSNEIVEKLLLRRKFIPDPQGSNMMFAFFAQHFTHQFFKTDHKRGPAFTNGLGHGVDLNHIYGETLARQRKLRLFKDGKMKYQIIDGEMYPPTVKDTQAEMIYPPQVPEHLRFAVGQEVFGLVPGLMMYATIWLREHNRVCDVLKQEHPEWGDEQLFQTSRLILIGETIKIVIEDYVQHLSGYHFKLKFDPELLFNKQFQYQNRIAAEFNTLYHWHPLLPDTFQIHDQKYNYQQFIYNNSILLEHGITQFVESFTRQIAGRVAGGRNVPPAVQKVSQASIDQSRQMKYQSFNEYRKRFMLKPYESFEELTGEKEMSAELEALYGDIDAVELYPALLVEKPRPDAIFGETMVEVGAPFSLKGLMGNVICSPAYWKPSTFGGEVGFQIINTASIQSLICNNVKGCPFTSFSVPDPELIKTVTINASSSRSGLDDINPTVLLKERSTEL
Description: The label-free real-time binding assay, BLI, was firstly performed to evaluate the potential COX2 binding activities of the twelve novel compounds. COX2 protein was captured onto the Ni-NTA sensors, by the virtue of its His-tag, followed by exposure to small-molecule compound. The binding of small-molecule compound to the biosensor increased the layer thickness of the sensor, resulting in an interference wavelength shift recorded by BLI. All 12 compounds were initially assayed at a single concentration of 100 μM (Figure 2a).
A significant shift in the association curve was observed upon addition of different concentrations of compounds DB2, SC2 and YB2 to COX2 in a concentration dependent manner (Figure 2b–d). During the dissociation step, it was also observed that the signal decreased to the baseline. That was a sign of a total protein-ligand dissociation, thus indicating the interaction was reversible. The real-time binding curves were generated fitting to a one-to-one binding model. The ratio of koff (dissociation) and kon (association) constants was equilibrium dissociation constants (KD).
His-tagged COX2 solution (40 μg∙mL^−1), which was prepared in phosphate buffer saline (PBS), was immobilized on Ni-NTA biosensor tips for 600 s. To remove drift and well-to-well artifacts, we performed double reference subtraction with FortéBio data analysis software. All the twelve compounds stock solutions (10 mM) were prepared in dimethyl sulfoxide (DMSO). The stock solutions were diluted with PBS containing 0.1% […] (PBST) to 100 μM for the initial assay. Typically, for re-assay, the stock solutions were serially diluted (4–6 point serial dilutions) in PBST. Compound testing was performed sequentially taking baseline, association and dissociation steps. Each of these steps took 60 s. The alignment of data was carried out using baseline signal and curves fitted with a one to one best-fit model in FortéBio’s data analysis software.

[2] = test system: EA.hy926 cells; test: Cytotoxicity of compound SC2, MTT assay; format: cell-based, human
Method: The cytotoxicity of compound SC2 on EA.hy926 cells was detected by 3-(4,5-dimethyl-2-thiazolyl)-2,5-diphenyl-2-H-tetrazolium bromide (MTT) assay.
Compound SC2 stock solutions were prepared in DMSO. The stock solutions were diluted with FBS free DMEM to different target concentrations (DMSO concentrations ≤ 0.5% v:v). Cells (100 μL, 2 × 10^5 cells∙mL^−1) were seeded on 96-well plates and cultured for 24 h. The medium was then replaced with fresh media containing H2O2 with different concentrations (0, 100, 200, 300, 400, 500, and 600 μmol·L^−1 in FBS free DMEM) and compound SC2 (50, 40, 30, 20, 10 µmol·L^−1), which were transferred to the incubator and cultured for additional time (2, 4, and 6 h). The medium was then replaced with 100 μL of FBS free DMEM and MTT (10 μL, 5 mg·mL^−1 in PBS) and after 4 h the medium was replaced with DMSO (100 μL). A microplate reader (SpectraMaxPlus384, Molecular Devices, United States) was used to record the absorbance at 490 nm for each well of the plates. Cell viability was measured via MTT assay. Survival rate (%) = (Asample group/Acontrol group) × 100%.

[3] = test system: EA.hy926 cells; test: LDH, MDA, ROS and SOD in H2O2-treated cells; format: cell-based, human; conditions: pretreated 24 h, then 400 μmol·L^−1 H2O2 for 4 h; p < 0.01
Method: In the course of oxidative stress, the balance between oxidation and antioxidant activity of cells was disturbed, and the levels of ROS, malondialdehyde (MDA) and lactate dehydrogenase (LDH) increased, while the activity of superoxide dismutase (SOD) enzyme in cells decreased.
Cells were dispensed into 24-well plate wells for 24 h and pretreated with target compound SC2 (5, 0.1, 0.05 µmol·L^−1) or the positive controls (10 µmol·L^−1) for 24 h, followed by exposure to 400 μmol·L^−1 H2O2 for 4 h. The cells were collected and the activities of LDH, MDA, SOD and ROS were determined according to the kits’ instructions.

Structure (SMILES) | Kd [1] | COX2 binding in BLI [1] | cell survival rate compared with control group ([2]; concentrations less than 30 µmol·L^−1) | effect on cells at concentration used in cell-based experiments ([2]; less than 10 µmol·L^−1) | LDH level compared with model group [3] | MDA level compared with model group [3] | ROS level compared with model group [3] | SOD activity compared with model group [3]
CCCCc1ccc(C(=O)c2c(Br)cc(O)c(O)c2O)cc1 [DB2] | 394 µM | interacted with the protein | – | – | – | – | – | –
CC(C)(C)c1ccc(C(=O)c2c(Cl)cc(O)c(O)c2O)cc1 [SC2] | 627 µM | interacted with the protein | not significantly different | harmless to cells | significantly reduced | significantly reduced | significantly reduced | significantly increased
CC(C)Cc1ccc(C(=O)c2c(Br)cc(O)c(O)c2O)cc1 [YB2] | 766 µM | interacted with the protein | – | – | – | – | – | –
